The text below walks through data of ChEMBL document CHEMBL1154213, “Composition of the fresh leaves and stems of Melissa officinalis and evaluation of skin irritation in a reconstituted human epidermis model” (J Nat Prod, 2009).

Data set [1] deals with Radical scavenging activity. The data set can be described thus: Antioxidant activity assessed as DPPH radical scavenging activity. In kind it is functional. In general terms: Loss of DPPH colour is used to gauge radical scavenging.
In data set [2] the test system is Homo sapiens. The data set can be described thus: Antiinflammatory activity against reconstituted human epidermis model assessed as inhibition of IL1-alpha release measured after 15 mins of topical exposure followed by 42 hrs of recovery by ELISA. Conditions: Skin epidermis. The format is functional.
The test system of data set [3] is Skin epidermis. The data set can be described thus: Reduction of trans epithelial electrical resistance in human reconstituted epidermis after 15 mins of topical exposure followed by 42 hrs of recovery. In kind it is functional.
The nature of data set [4]: Cytotoxicity against human reconstituted epidermal cells at 17.1 mM after 15 mins of topical exposure followed by 42 hrs of recovery by MTT assay. The format is cell-based. The following applies: 0.25 h, 17100 µM. On the technique in general: Tetrazolium assays rely on reduction of a dye to a coloured formazan, in cell work by metabolically active cells.
Data set [5] has as its system Candida albicans. The data set can be described thus: Antimicrobial activity against Candida albicans ATCC 10231 after 5 days by broth dilution method. In kind it is functional, organism-based. A general note: Broth dilution looks for growth in wells or tubes with falling amounts of substance.
Data set [6] relates to Staphylococcus epidermidis. The data set can be described thus: Antimicrobial activity against Staphylococcus epidermidis ATCC 12228 after 48 hrs by broth dilution method. In kind it is functional. Conditions: ATCC 12228, 48 h.
The subject of data set [7] is Candida albicans. The data set can be described thus: Antimicrobial activity against Candida albicans ATCC 10231 after 24 hrs by broth dilution method. The following applies: ATCC 10231, 24 h. The format is functional.
Data set [8] concerns Pseudomonas aeruginosa. The data set can be described thus: Antimicrobial activity against Pseudomonas aeruginosa ATCC 9027 after 24 hrs by broth dilution method. The format is functional. The following applies: ATCC 9027, 24 h.
For data set [9], the system named is Staphylococcus aureus. The data set can be described thus: Antimicrobial activity against Staphylococcus aureus ATCC 6538 after 24 hrs by broth dilution method. In kind it is functional. The following applies: ATCC 6538, 24 h.
For data set [10], the system named is Staphylococcus aureus. The data set can be described thus: Antimicrobial activity against Staphylococcus aureus ATCC 6538 after 48 hrs by broth dilution method. In kind it is functional. The following applies: ATCC 6538, 48 h.
Data set [11] relates to Aspergillus niger. The data set can be described thus: Antimicrobial activity against Aspergillus niger ATCC 16404 after 24 hrs by broth dilution method. The format is functional. Conditions: ATCC 16404, 24 h.
Data set [12] relates to Aspergillus niger. The data set can be described thus: Antimicrobial activity against Aspergillus niger ATCC 16404 after 5 days by broth dilution method. In kind it is functional, organism-based.
Data set [13] deals with Staphylococcus epidermidis. The data set can be described thus: Antimicrobial activity against Staphylococcus epidermidis ATCC 12228 after 24 hrs by broth dilution method. Conditions: ATCC 12228, 24 h. The format is functional.
Data set [14] deals with Escherichia coli. The data set can be described thus: Antimicrobial activity against Escherichia coli ATCC 8739 after 48 hrs by broth dilution method. In kind it is functional, organism-based.
The subject of data set [15] is Bacillus spizizenii. The data set can be described thus: Antimicrobial activity against Bacillus spizizenii ATCC 6633 after 24 hrs by broth dilution method. In kind it is functional.
In data set [16] the test system is Bacillus spizizenii. The data set can be described thus: Antimicrobial activity against Bacillus spizizenii ATCC 6633 after 48 hrs by broth dilution method. Conditions: ATCC 6633, 48 h. The format is functional.
The subject of data set [17] is Pseudomonas aeruginosa. The data set can be described thus: Antimicrobial activity against Pseudomonas aeruginosa ATCC 9027 after 48 hrs by broth dilution method. In kind it is functional. Conditions: ATCC 9027, 48 h.
The subject of data set [18] is Escherichia coli. The data set can be described thus: Antimicrobial activity against Escherichia coli ATCC 8739 after 24 hrs by broth dilution method. The format is functional, organism-based.

Each structure is given as a SMILES string. ≈ marks a conversion by molar mass, not a printed value. Calls of active or inactive are those of the source. The rule behind the calls is not given here.

On to `C[C@@H]1CC[C@]2(C(=O)O[C@@H]3O[C@H](CO)[C@@H](O)[C@H](O)[C@H]3O)CC[C@]3(C)C(=CC[C@@H]4[C@@]5(C)C[C@@H](O)[C@H](O)[C@@](C)(COS(=O)(=O)O)[C@@H]5CC[C@]43C)[C@@H]2[C@]1(C)O`, for which, in data set [1], the result was inactive.
The term EC50 denotes the concentration giving half of the maximal effect. For `O=C(O)/C=C/c1ccc(O)c(O)c1` [CAFFEIC ACID], the EC50 in [1] stood at 17.8 µM.
As to `C[C@@H]1CC[C@]2(C(=O)O)CC[C@]3(C)C(=CC[C@@H]4[C@@]5(C)C[C@@H](O)[C@H](O)[C@@](C)(COS(=O)(=O)O)[C@@H]5CC[C@]43C)[C@@H]2[C@]1(C)O`, the Activity result in data set [2] is “Non-toxic”; in [3], “Non-toxic”; in data set [4], greater than 75%. Also, in data set [1], the outcome was inactive.
In general, MIC refers to the lowest concentration that inhibits growth of the organism. As for `O=C(/C=C/c1ccc(O)c(O)c1)O[C@H](Cc1ccc(O)c(O)c1)C(=O)O` [ROSMARINIC ACID], the MBC entry in data set [5], in [12] and in data set [14] was “inactive” in each case. In addition, the MBC in [6] worked out at 1000 µg/mL (≈ 2.78 mM); in data set [10] it was 120 µg/mL (≈ 0.333 mM); in data set [16], 4000 µg/mL (≈ 11.1 mM); in data set [17] it was 4000 µg/mL (≈ 11.1 mM). In addition, the MIC in data set [7] amounted to 2000 µg/mL (≈ 5.55 mM); in [8] it was 2000 µg/mL (≈ 5.55 mM); in data set [9], 120 µg/mL (≈ 0.333 mM); in [11], 4000 µg/mL (≈ 11.1 mM); in [13], 120 µg/mL (≈ 0.333 mM); in data set [15], 4000 µg/mL (≈ 11.1 mM). Further, the EC50 in data set [1] was 8 µM. Further, the MIC result in data set [18] is “inactive”.
